PMC11538350, “Synthetic studies on the tetrasubstituted D-ring of cystobactamids lead to potent terephthalic acid antibiotics” (Communications Chemistry, 2024)
Converted amounts (≈) assume the structure as drawn.

Assays:
[1] = test system: A. baum. DSM-30008; experiment: MIC assay; assay type: cell-based; settings: Acinetobacter baumannii, DSM30008; reference strain; read-out: MIC A. baum. DSM-30008
Procedure: (§1) All cystobactamids were evaluated in MIC-assays on a panel of representative ESKAPE strains with focus on A. baumannii (Tables 1 and 2). Compared to our previous work[10],[17],[18], we specifically included more challenging test strains with known resistances against gyrase inhibitors.
(§2) 2.1 Materials and Methods
(§3) Strains were cultivated according to standard procedures. Bacterial cryo-cultures were
(§4) resuspended into fresh MHBII (cation adjusted) medium. The resuspension
(§5) assay plate (Corning, #3788).
(§6) in parallel as a positive control. […]

[2] = test system: K. pneum. R-1525; experiment: MIC assay; assay type: cell-based; settings: Klebsiella pneumoniae; read-out: MIC K. pneum. R-1525
Procedure: as §1, §2, §3, §4, §5, §6

[3] = test system: P. ae. PA14; experiment: MIC assay; assay type: cell-based; settings: Pseudomonas aeruginosa, PA14; reference strain; read-out: MIC P. ae. PA14
Procedure: as §1, §2, §3, §4, §5, §6

[4] = test system: K. pneum. CIP-104298; experiment: MIC assay; assay type: cell-based; settings: Klebsiella pneumoniae, CIP104298; reference strain; read-out: MIC K. pneum. CIP-104298
Procedure: as §1, §2, §3, §4, §5, §6

[5] = test system: A. baum. ATCC BAA-1710; experiment: MIC assay; assay type: cell-based; settings: Acinetobacter baumannii, ATCCBAA1710; read-out: MIC A. baum. ATCC BAA-1710
Procedure: as §1, §2, §3, §4, §5, §6

[6] = test system: P. ae. PA14ΔmexAB; experiment: MIC assay; assay type: cell-based; settings: Pseudomonas aeruginosa, read-out: MIC P. ae. PA14ΔmexAB
Procedure: as §1, §2, §3, §4, §5, §6

[7] = test system: S. aur. ATCC-29213; experiment: MIC assay; assay type: cell-based; settings: Staphylococcus aureus, ATCC29213; reference strain; read-out: MIC S. aur. ATCC-29213
Procedure: as §1, §2, §3, §4, §5, §6

[8] = test system: E. coli ATCC-25922; experiment: MIC assay; assay type: cell-based; settings: Escherichia coli, ATCC25922; reference strain; read-out: MIC E. coli ATCC-25922
Procedure: as §1, §2, §3, §4, §5, §6

[9] = test system: A. baum. CIP-105742; experiment: MIC assay; assay type: cell-based; settings: Acinetobacter baumannii, CIP105742; read-out: MIC A. baum. CIP-105742
Procedure: as §1, §2, §3, §4, §5, §6

[10] = test system: A. baum. CIP-107292; experiment: MIC assay; assay type: cell-based; settings: Acinetobacter baumannii, CIP107292; read-out: MIC A. baum. CIP-107292
Procedure: as §1, §2, §3, §4, §5, §6

[11] = test system: A. baum. R835; experiment: MIC assay; assay type: cell-based; settings: Acinetobacter baumannii; read-out: MIC A. baum. R835
Procedure: as §1, §2, §3, §4, §5, §6

[12] = test system: E. coli LM705; experiment: MIC assay; assay type: cell-based; settings: Escherichia coli, LM705, read-out: MIC E. coli LM705
Procedure: as §1, §2, §3, §4, §5, §6

[13] = test system: S. pneum. DSM-11865 (PRSP); experiment: MIC assay; assay type: cell-based; settings: Streptococcus pneumoniae; read-out: MIC S. pneum. DSM-11865 (PRSP)
Procedure: as §1, §2, §3, §4, §5, §6

[14] = test system: E. faec. DSM-17050 (VRE); experiment: MIC assay; assay type: cell-based, Enterococcus faecium; settings: Enterococcus; read-out: MIC E. faec. DSM-17050 (VRE)
Procedure: as §1, §2, §3, §4, §5, §6

[15] = test system: E. ae. CIP 106754; experiment: MIC assay; assay type: cell-based, Enterobacter aerogenes; settings: Klebsiella aerogenes, CIP106754, read-out: MIC E. ae. CIP 106754
Procedure: as §1, §2, §3, §4, §5, §6

[16] = test system: K. pneum. KP10581; experiment: MIC assay; assay type: cell-based; settings: Klebsiella pneumoniae; read-out: MIC K. pneum. KP10581
Procedure: as §1, §2, §3, §4, §5, §6

[17] = test system: E. cloacae ATCC BAA-2468; experiment: MIC assay; assay type: cell-based; settings: Enterobacter cloacae, ATCCBAA2468; read-out: MIC E. cloacae ATCC BAA-2468
Procedure: as §1, §2, §3, §4, §5, §6

[18] = test system: ESKAPE strains; experiment: MIC-assays on a panel of representative ESKAPE strains, summary in words; assay type: cell-based; settings: summary of the MIC tables
Procedure: as §1, §2, §3, §4, §5, §6

| Compound | MIC [1] [mg/L] | MIC [2] [mg/L] | MIC [3] [mg/L] | MIC [4] [mg/L] | MIC [5] [mg/L] | MIC [6] [mg/L] | MIC [7] [mg/L] | MIC [8] [mg/L] | MIC [9] [mg/L] | MIC [10] [mg/L] | MIC [11] [mg/L] | MIC [12] [mg/L] | MIC [13] [mg/L] | MIC [14] [mg/L] | MIC [15] [mg/L] | MIC [16] [mg/L] | MIC [17] [mg/L] | antibacterial activity on the pathogen panel, in words [18] |
| --- | --- | --- | --- | --- | --- | --- | --- | --- | --- | --- | --- | --- | --- | --- | --- | --- | --- | --- |
| O=C(O)c1cn(C2CC2)c2cc(N3CCNCC3)c(F)cc2c1=O [CIP, ciprofloxacin, reference compound] | 0.05 to 0.25 (≈ 0.151 to 0.754 µM) | > 64 | 0.025 to 0.2 (≈ 0.0754 to 0.604 µM) | 0.025 to 0.05 (≈ 0.0754 to 0.151 µM) | 32 (≈ 96.6 µM) | 0.006 to 0.1 (≈ 0.0181 to 0.302 µM) | 0.2 to 1 (≈ 0.604 to 3.02 µM) | 0.01 to 0.03 (≈ 0.0302 to 0.0905 µM) | 0.03 to 0.25 (≈ 0.0905 to 0.754 µM) | 64 (≈ 193 µM) | 32 (≈ 96.6 µM) | > 6.4 | > 6.4 | 0.05 to 4 (≈ 0.151 to 12.1 µM) | > 6.4 | – | – | – |
| CO[C@@H](C(N)=O)[C@H](NC(=O)c1ccc(NC(=O)c2ccc(C#N)cc2)cc1)C(=O)Nc1ccc(C(=O)Nc2ccc(C(=O)Nc3ccc(C(=O)O)cc3)c(O)c2OC(C)C)cc1 [CN861 1, reference compound] | 1 (≈ 1.19 µM) | 16 (≈ 19 µM) | 16 (≈ 19 µM) | 16 (≈ 19 µM) | 8 (≈ 9.5 µM) | 1 (≈ 1.19 µM) | 0.125 (≈ 0.148 µM) | 0.25 (≈ 0.297 µM) | 0.25 (≈ 0.297 µM) | > 64 | 64 (≈ 76 µM) | 0.64 (≈ 0.76 µM) | – | – | 4 (≈ 4.75 µM) | 2 (≈ 2.38 µM) | 32 (≈ 38 µM) | – |
| C#CCC(NC(=O)c1ccc(NC(=O)c2ccc(C#N)cc2)cc1)C(=O)Nc1ccc(C(=O)Nc2ccc(C(=O)Nc3ccc(C(=O)O)cc3)c(O)c2OC(C)C)cc1 (stereo not drawn) [CN-CC-861 2, reference compound] | 0.02 to 0.03 (≈ 0.0252 to 0.0378 µM) | – | 0.5 to 16 (≈ 0.631 to 20.2 µM) | 8 (≈ 10.1 µM) | 0.06 to 0.25 (≈ 0.0757 to 0.315 µM) | 0.03 to 0.5 (≈ 0.0378 to 0.631 µM) | 0.02 (≈ 0.0252 µM) | – | 0.02 (≈ 0.0252 µM) | 0.5 to 1 (≈ 0.631 to 1.26 µM) | 1 (≈ 1.26 µM) | 0.03 to 0.2 (≈ 0.0378 to 0.252 µM) | – | < 0.03 | 0.125 to 4 (≈ 0.158 to 5.05 µM) | 0.06 to 0.25 (≈ 0.0757 to 0.315 µM) | – | – |
| C#CC[C@H](NC(=O)c1ccc(NC(=O)c2ccc(C#N)cc2)cc1)C(=O)Nc1ccc(C(=O)Nc2cc(O)c(C(=O)Nc3ccc(C(=O)O)cc3)cc2OC(C)C)cc1 [Cmpd. 3] | 1 (≈ 1.26 µM) | > 64 | > 64 | > 64 | > 64 | > 64 | > 64 | 1 (≈ 1.26 µM) | 2 (≈ 2.52 µM) | > 64 | > 64 | > 64 | > 64 | > 64 | > 64 | > 64 | > 64 | – |
| C#CCC(NC(=O)c1ccc(NC(=O)c2ccc(C#N)cc2)cc1)C(=O)Nc1ccc(C(=O)Nc2ccc(C(=O)Nc3ccc(C(=O)O)cc3)c(Cl)c2OC(C)C)cc1 (stereo not drawn) [Cmpd. 5] | > 8 | > 64 | > 64 | > 64 | > 8 | > 64 | > 64 | > 64 | > 8 | > 8 | > 8 | > 64 | > 64 | > 64 | > 64 | > 64 | > 64 | abolished the activity in all tested strains |
| C#CC[C@H](NC(=O)c1ccc(NC(=O)c2ccc(C#N)cc2)cc1)C(=O)Nc1ccc(C(=O)Nc2ccc(C(=O)Nc3ccc(C(=O)O)cc3)c(Br)c2OC(C)C)cc1 [Cmpd. 6] | > 8 | > 64 | > 64 | > 64 | > 8 | > 64 | > 64 | > 64 | > 8 | > 8 | > 8 | > 64 | > 64 | > 64 | > 64 | > 64 | > 64 | abolished the activity in all tested strains |
